Measured values as given in patent publication US8304439B1, “Use of quaternary pyridinium salts as a therapeutic or preventing agent against ionizing radiation-induced damage” (priority 2007, dated 2012).

Experiments:
murine leukemia L1210 = conditions: cited from earlier work; for cytotoxicity in cultured leukemia cells: comparison among the three salts
[1] = tested on: male BALB/c mice, whole body irradiation 7.5 Gy; assay: Survival of mice during 30 days following whole body gamma irradiation, compounds given before or after irradiation (Example 2); format: in vivo; conditions: 7.5 Gy whole body, from day 7 before or day 7 after irradiation until day 30
Source text: (§1) The survival rate of irradiated mice treated with the compounds in comparison control was used as a measure of a radioprotective effect.
The methodology followed was as described in B Hou. Z. W. Xu, C. W. Yang, Y. Gao, S. F. Zhao, C. G. Zhang: Protective effects of inosine on mice subjected to lethal total-body ionizing irradiation. J Radiat Res 48, 57-62, 2007. In brief, six-to-eight-week old male BALB/c mice obtained from the Nofer Institute of Occupational Medicine, ? ódź, Poland were used for the experiments. Whole bodies of the animals were exposed to a single irradiation (at the Military Institute of Chemistry and Radiometry) with gamma rays from the ^60Co source at 7.2 Gy/h mean dose rate to obtain the absorbed dose of 7.5 Gy per mouse. The absorbed doses were verified using thermoluminescent dosimeters implanted subcutaneously in the middle abdominal region. All the mice were maintained under specific pathogen-free conditions. Survival of the mice was assessed during 30 days following the irradiation.
The mice were divided into irradiated control group receiving no treatment, irradiated treatment group receiving MNA, irradiated treatment group receiving DMP, and irradiated treatment group receiving MAP. Each of the treatment groups was divided into two subgroups, the first group in which the animals received the tested compounds starting from day 7 before the irradiation, and the second group in which the animals received the tested compounds starting from day 7 after the irradiation.
The compounds were given dissolved in drinking water at 100 mg/kg of body weight/24 h (DMP and MAP) and 500 mg/kg of body weight (MNA)/24 h until day 30 post irradiation.

[2] = tested on: mice irradiated with lethal dose of about 7.5 Gy; assay: Survival rate of mice after whole body irradiation, MNA given before irradiation (Example 1); format: in vivo; conditions: whole body irradiation 7.5 Gy; 300 mg/kg per day in drinking water from the 7th day preceding irradiation, continued after; untreated group approximately 20%; FIG. 1
Method: as §1
The methodology used was as described by Cheda et al., Radiation Research 2004, 161, 335 (animals and irradiation).
The survival rate of mice irradiated with lethal dose of about 7.5 Gy was tested. The treatment group received 1-methylnicotinamide chloride (MNA) in drinking water at an average dose of 300 mg/kg per day every day starting from the 7th day preceding the irradiation day. The administration was continued after irradiation. The control group received no treatment.

[3] = 100 mg/kg/24 h in drinking water, FIG. 3, FIG. 4

Compound	cytotoxicity in cultured leukemia cells (murine leukemia L1210)	protective activity (survival of mice) [1, 3]	concentration at which activity was observed (murine leukemia L1210; L1210 cells)	protective activity (survival of mice) ([1]; 500 mg/kg/24 h in drinking water, FIG. 2)	survival rate of mice [2]
CC(=O)c1ccc[n+](C)c1.[Cl-] [MAP, 1-methyl-3-acetylpyridinium chloride]	several thousands times lower	exert their protective activity both when administered prior irradiation and when administered after irradiation	–	–	–
C[n+]1cccc([N+](=O)[O-])c1.[Cl-] [3-nitro-1-methylpyridinium chloride, 1-methyl-3-nitropyridinium chloride, reference compound]	highest cytotoxicity	–	–	–	–
C[n+]1cccc(C(N)=O)c1 [MNA, 1-methylnicotinamide chloride]	several thousands times lower	–	observed only at very high concentration	exert their protective activity both when administered prior irradiation and when administered after irradiation	about 50%
Cc1cc[n+](C)cc1.[Cl-] [DMP, 1,4-dimethylpyridinium chloride]	–	exert their protective activity both when administered prior irradiation and when administered after irradiation	–	–	–
